# In patent publication US20230002736A1, “ENDODERM DIFFERENTIATION FROM PLURIPOTENT STEM CELL LINES” (priority 2019, published 2023):
# “Also recorded” adds a separate entry of the source. Read-outs that look alike come from different tables or passages of the source.
# Experiments:
# iPSC lines [1] = type: cell-based; settings: for ability to enhance survival of cells during induction to endoderm, other antibiotic classes compared to doxycycline: FIGS. 2B and 9B; for effect of adding Y-27632 to the protocol including doxycycline: cell lines still difficult to induce
# Experimental: (§1) Induction of Definitive Endoderm (days 1-7). iPSCs were plated on 6-, 12-, or 96-well Matrigel-coated plates at different densities for differentiation in iPSC media containing 10 μM Y-27632 and 2 μM doxycycline. For example, typical plating density in a single well of a 6-well plate was 500,000 cells or 20,000 cells per well for 96-well plates. The differentiation process consisted of one week of RPMI media supplemented with Gem21 NeuroPlex without insulin at 1× (supplied at 50×, Gemini Bio-Products West Sacramento, Calif., catalog #400-962, or supplemented with Gibco B27 without insulin at 1×), Glutagro at 1× (Corning, Manassas, Va., catalog #25-015-CI, non-essential amino acids at 1× (Gibco, catalog #11-140-050), sodium butyrate (0.5 mM, Sigma Aldrich, catalog #B5887) and recombinant human Activin A (100 ng/mL, Peprotech, Rocky Hill, N.J., catalog #120-14E) for 7 days. On day 1, 2% KnockOut Serum Replacement (KSR; Gibco Catalog #10828028), CHIR-99021 (10 ng/mL, Selleckchem catalog #S2924), PI-103 (10 ng/mL,Selleckchem catalog #S1038), recombinant human BMP4 (10 ng/mL, Peprotech catalog #120-05ET) and FGF2 (20 ng/mL, Peprotech catalog #100-18B) were added to the media. On day 2, 1% KSR, PI-103 (10 ng/mL) and BMP4 (10 ng/mL) and FGF2 (20 ng/mL) and on day 3, 0.2% KSR and PI-103 (10 ng/mL) were added to the media. Doxycycline hyclate (Acros Organics catalog #446061000) was added throughout definitive endoderm induction starting on day 0 (passage day) at various concentrations, as described herein, with a standard concentration being 2 μM. These steps can be performed at normal room oxygen at about 20% or at low oxygen between 4 and 6%.
# iPSC line AG02261 = assay: Endoderm induction compound comparison, cell number at day 7, line AG02261; type: cell-based, human; settings: for effect on endoderm induction at high concentration: AG02261, 10 μM concentration; for response in compound screen, number of cells seven days after induction: cell line AG02261, FIG. 2B
# Experimental: as §1, with “FIG. 2. Doxycycline Enhanced Endoderm. A: Immunofluorescence and bright-field images showing induction of iPSC line 1023-5 to definitive endoderm (DE) with Hoechst 33342 nuclear staining in blue, and antibody staining in green for OCT3/4, FOXA, HNF1p and CXCR4 with AlexaFluor 488 secondary (green) antibody. […] (scale bar=[…]); B: Compound Screen showing other antibiotics and other compounds affecting the mitochondria were compared to doxycycline. […] The number of cells is shown measured seven days after induction compared to the plating density at day 0 (n=2); C: Comparison of Tetracycline Derivatives in iPSC lines AG02261. […] The number of cells is shown measured seven days after induction compared to the plating density at day 0. […] Induction” for “Induction”
# iPSC line AS7192 = assay: Endoderm induction compound comparison, cell number at day 7, line AS7192; type: cell-based, human; settings: 1 μM concentration
# Experimental: FIG. 2. Doxycycline Enhanced Endoderm. A: Immunofluorescence and bright-field images showing induction of iPSC line 1023-5 to definitive endoderm (DE) with Hoechst 33342 nuclear staining in blue, and antibody staining in green for OCT3/4, FOXA, HNF1p and CXCR4 with AlexaFluor 488 secondary (green) antibody. […] (scale bar=[…]); B: Compound Screen showing other antibiotics and other compounds affecting the mitochondria were compared to doxycycline. […] The number of cells is shown measured seven days after induction compared to the plating density at day 0 (n=2); C: Comparison of Tetracycline Derivatives in iPSC lines AG02261. […] The number of cells is shown measured seven days after induction compared to the plating density at day 0. […] FIG. 9. Comparison of Tetracycline Derivatives and Other Compounds in additional cell line. A: Induction of iPSC lines AS7192 was performed. […] The number of cells was measured seven days after induction compared to the plating density at day 0. […] Induction of Definitive Endoderm (days 1-7). iPSCs were plated on 6-, 12-, or 96-well Matrigel-coated plates at different densities for differentiation in iPSC media containing 10 μM Y-27632 and 2 μM doxycycline. For example, typical plating density in a single well of a 6-well plate was 500,000 cells or 20,000 cells per well for 96-well plates. […]
# iPSC lines [2] = type: cell-based; settings: protocol without doxycycline
molecule,measurement,setting,value
COc1ccc(C[C@H](N)C(=O)N[C@H]2[C@@H](O)[C@H](n3cnc4c(N(C)C)ncnc43)O[C@@H]2CO)cc1 [Puromycin],"ability to enhance survival of cells during induction to endoderm, other antibiotic classes compared to doxycycline",iPSC lines [1],only Gentamicin showed a similar statistically significant ability
"CN(C)c1ccc(O)c2c1C[C@H]1C[C@H]3[C@H](N(C)C)C(O)=C(C(N)=O)C(=O)[C@@]3(O)C(O)=C1C2=O [Minocycline, minocycline]",effect on endoderm induction at high concentration,iPSC line AG02261,mostly toxicity
CC1(C)S[C@@H]2[C@H](NC(=O)[C@H](N)c3ccccc3)C(=O)N2[C@H]1C(=O)O [ampicillin],"ability to enhance survival of cells during induction to endoderm, other antibiotic classes compared to doxycycline",iPSC lines [1],only Gentamicin showed a similar statistically significant ability
"CN(C)[C@@H]1C(O)=C(C(N)=O)C(=O)[C@@]2(O)C(O)=C3C(=O)c4c(O)ccc(Cl)c4[C@@H](O)[C@H]3C[C@@H]12 [Demeclocycline, demeclocycline]",ability to rescue endoderm induction compared to doxycycline,iPSC line AS7192,to some extent
"C=C1c2cccc(O)c2C(=O)C2=C(O)[C@]3(O)C(=O)C(C(N)=O)=C(O)[C@@H](N(C)C)[C@@H]3[C@@H](O)[C@H]12 [Methacycline, methacycline]",effect on endoderm induction at high concentration,iPSC line AG02261,mostly toxicity
N=C(N)SCCc1ccc(OCc2ccc([N+](=O)[O-])cc2)cc1 [KB-R7943],"response in compound screen, number of cells seven days after induction",iPSC line AG02261,showed responses at specific doses
Gentamicin [Gentamycin],number of cells seven days after induction compared to the plating density at day 0 (compound screen),"iPSC lines [1]; antibiotics and mitochondria-affecting compounds compared to doxycycline, FIG. 2B",strong increasing dose response
C[C@@H](N)[C@H]1CC[C@H](C(=O)Nc2ccncc2)CC1 [Y-27632],effect of adding Y-27632 to the protocol including doxycycline,iPSC lines [1],promoted the efficient and complete differentiation of these cell lines
same,effect of adding Y-27632 to the protocol including doxycycline,iPSC lines [1]; listed as Y27632,led to the rescue of additional stem cell lines
same,rescue of induction by Y-27632 alone,iPSC lines [2]; resistant lines,does not produce the same robust induction; also recorded: not able to rescue resistant lines
Cc1c[nH]c(-c2cnc(NCCNc3ccc(C#N)cn3)nc2-c2ccc(Cl)cc2Cl)n1 [CHIR99021],effect on number of cells in endoderm induction,iPSC lines [2]; addition in the first 24 hours,improved the number of cells in multiple different cell lines
N.N.N.N.N.N.N.N.N.N.N.N.N.N.[Cl-].[Cl-].[Cl-].[Cl-].[Cl-].[Cl-].[O-2].[O-2].[Ru+3].[Ru+3].[Ru+4] [Ruthenium Red],"response in compound screen, number of cells seven days after induction",iPSC line AG02261,showed responses at specific doses
